Reference: ChEMBL document CHEMBL4507318, “Data for DCP probe BAY-985” (2021)

Assays:
[1] = biological target: D(1B) dopamine receptor (Homo sapiens) (UniProt P21918); settings: Compound concentration 10.0 uM
[2] = biological target: Dual specificity protein kinase CLK2 (Homo sapiens) (UniProt P49760)
[3] = biological target: Serine/threonine-protein kinase ULK3 (Homo sapiens) (UniProt Q6PHR2)
[4] = tested on: Receptor-type tyrosine-protein kinase FLT3 (Homo sapiens), P36888 [UNDEFINED MUTATION]
[5] = biological target: Dual serine/threonine and tyrosine protein kinase (Homo sapiens) (UniProt Q6XUX3)
[6] = tested on: Mast/stem cell growth factor receptor Kit (Homo sapiens), P10721 [V559D,V654A]
[7] = biological target: Alpha-2A adrenergic receptor (Homo sapiens) (UniProt P08913); settings: Compound concentration 10.0 uM
[8] = biological target: Serine/threonine-protein kinase N1 (Homo sapiens) (UniProt Q16512)
[9] = biological target: Serine/threonine-protein kinase B-raf (Homo sapiens) (UniProt P15056)
[10] = biological target: Cyclin-dependent kinase 4 (Homo sapiens) (UniProt P11802)
[11] = biological target: Misshapen-like kinase 1 (Homo sapiens) (UniProt Q8N4C8)
[12] = biological target: Glycogen synthase kinase-3 beta (Homo sapiens) (UniProt P49841)
[13] = biological target: Serine/threonine-protein kinase RIO3 (Homo sapiens) (UniProt O14730)
[14] = biological target: Cytoplasmic tyrosine-protein kinase BMX (Homo sapiens) (UniProt P51813)
[15] = biological target: Aurora kinase B (Homo sapiens) (UniProt Q96GD4)
[16] = biological target: BMP-2-inducible protein kinase (Homo sapiens) (UniProt Q9NSY1)
[17] = biological target: Macrophage-stimulating protein receptor (Homo sapiens) (UniProt Q04912)
[18] = biological target: Epithelial discoidin domain-containing receptor 1 (Homo sapiens) (UniProt Q08345)
[19] = tested on: Receptor-type tyrosine-protein kinase FLT3 (Homo sapiens), P36888 [D835Y]
[20] = biological target: Serine/threonine-protein kinase Chk2 (Homo sapiens) (UniProt O96017)
[21] = biological target: Serine/threonine-protein kinase SIK3 (Homo sapiens) (UniProt Q9Y2K2)
[22] = biological target: Casein kinase I isoform delta (Homo sapiens) (UniProt P48730)
[23] = biological target: Casein kinase I isoform epsilon (Homo sapiens) (UniProt P49674)
[24] = biological target: Phosphatidylinositol 5-phosphate 4-kinase type-2 gamma (Homo sapiens) (UniProt Q8TBX8)
[25] = biological target: Dual specificity mitogen-activated protein kinase kinase 2 (Homo sapiens) (UniProt P36507)
[26] = tested on: Phosphatidylinositol 4,5-bisphosphate 3-kinase catalytic subunit alpha isoform (Homo sapiens), P42336 [I800L]
[27] = biological target: Beta-adrenergic receptor kinase 1 (Homo sapiens) (UniProt P25098)
[28] = biological target: 5-hydroxytryptamine receptor 3A (Homo sapiens) (UniProt P46098); settings: Compound concentration 10.0 uM
[29] = tested on: Mast/stem cell growth factor receptor Kit (Homo sapiens), P10721 [V559D,T670I]
[30] = biological target: Tyrosine-protein kinase ITK/TSK (Homo sapiens) (UniProt Q08881)
[31] = biological target: RAC-beta serine/threonine-protein kinase (Homo sapiens) (UniProt P31751)
[32] = biological target: Kappa-type opioid receptor (Homo sapiens) (UniProt P41145); settings: Compound concentration 10.0 uM
[33] = biological target: Serine/threonine-protein kinase LATS2 (Homo sapiens) (UniProt Q9NRM7)
[34] = tested on: Tyrosine-protein kinase ABL1 (Homo sapiens), P00519 [H396P]
[35] = biological target: Muscarinic acetylcholine receptor M1 (Homo sapiens) (UniProt P11229); settings: Compound concentration 10.0 uM
[36] = biological target: Serine/threonine-protein kinase WNK4 (Homo sapiens) (UniProt Q96J92)
[37] = tested on: Epidermal growth factor receptor (Homo sapiens), P00533 [UNDEFINED MUTATION]
[38] = biological target: Membrane-associated tyrosine- and threonine-specific cdc2-inhibitory kinase (Homo sapiens) (UniProt Q99640)
[39] = tested on: Mast/stem cell growth factor receptor Kit (Homo sapiens), P10721 [A829P]
[40] = biological target: Ephrin type-B receptor 1 (Homo sapiens) (UniProt P54762)
[41] = biological target: Casein kinase I isoform alpha (Homo sapiens) (UniProt P48729)
[42] = biological target: ALK tyrosine kinase receptor (Homo sapiens) (UniProt Q9UM73)
[43] = biological target: Platelet-derived growth factor receptor beta (Homo sapiens) (UniProt P09619)
[44] = biological target: Mitogen-activated protein kinase kinase kinase 15 (Homo sapiens) (UniProt Q6ZN16)
[45] = biological target: Sigma intracellular receptor 2 (Homo sapiens, UniProt Q5BJF2); test: GPCRScan assay: inhibition of Sigma 2; design: radioligand conc. used [nm] 5.0, parental cells HEKT
[46] = Compound concentration 1000.0 nM
[47] = Compound concentration 100.0 nM

Sequence of Sigma intracellular receptor 2 (Q5BJF2 whole entry): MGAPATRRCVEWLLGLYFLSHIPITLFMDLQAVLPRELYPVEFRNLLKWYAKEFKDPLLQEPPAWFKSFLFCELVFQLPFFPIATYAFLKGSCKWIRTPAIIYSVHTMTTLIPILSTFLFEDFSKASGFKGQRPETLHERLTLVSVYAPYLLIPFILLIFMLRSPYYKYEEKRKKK
Sequence of Epithelial discoidin domain-containing receptor 1 (Homo sapiens) (Q08345 whole entry, the tested form may be a part): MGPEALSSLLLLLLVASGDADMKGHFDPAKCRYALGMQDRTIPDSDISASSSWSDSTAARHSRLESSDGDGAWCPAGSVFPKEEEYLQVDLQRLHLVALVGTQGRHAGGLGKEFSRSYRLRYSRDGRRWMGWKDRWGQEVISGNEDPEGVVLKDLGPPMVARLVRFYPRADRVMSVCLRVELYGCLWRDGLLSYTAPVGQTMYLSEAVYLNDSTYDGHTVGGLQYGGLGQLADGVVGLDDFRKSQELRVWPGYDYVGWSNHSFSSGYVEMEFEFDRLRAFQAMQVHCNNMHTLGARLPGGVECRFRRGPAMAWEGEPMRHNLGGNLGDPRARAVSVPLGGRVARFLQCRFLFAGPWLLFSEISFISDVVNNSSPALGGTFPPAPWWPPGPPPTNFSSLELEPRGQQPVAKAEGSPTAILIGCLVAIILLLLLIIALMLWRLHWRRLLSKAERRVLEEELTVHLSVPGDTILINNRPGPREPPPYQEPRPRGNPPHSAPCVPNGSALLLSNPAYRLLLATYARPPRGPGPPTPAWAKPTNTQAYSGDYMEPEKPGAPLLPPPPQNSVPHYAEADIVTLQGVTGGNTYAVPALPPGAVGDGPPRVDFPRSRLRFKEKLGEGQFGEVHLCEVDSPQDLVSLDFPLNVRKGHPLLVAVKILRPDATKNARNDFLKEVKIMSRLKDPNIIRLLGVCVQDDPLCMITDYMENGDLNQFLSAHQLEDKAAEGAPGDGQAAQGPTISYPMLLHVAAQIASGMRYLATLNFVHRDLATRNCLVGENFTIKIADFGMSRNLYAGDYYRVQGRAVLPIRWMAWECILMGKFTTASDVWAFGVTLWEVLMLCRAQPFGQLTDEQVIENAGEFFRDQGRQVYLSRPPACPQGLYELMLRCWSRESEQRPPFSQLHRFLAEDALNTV
Sequence of Serine/threonine-protein kinase WNK4 (Homo sapiens) (Q96J92 whole entry): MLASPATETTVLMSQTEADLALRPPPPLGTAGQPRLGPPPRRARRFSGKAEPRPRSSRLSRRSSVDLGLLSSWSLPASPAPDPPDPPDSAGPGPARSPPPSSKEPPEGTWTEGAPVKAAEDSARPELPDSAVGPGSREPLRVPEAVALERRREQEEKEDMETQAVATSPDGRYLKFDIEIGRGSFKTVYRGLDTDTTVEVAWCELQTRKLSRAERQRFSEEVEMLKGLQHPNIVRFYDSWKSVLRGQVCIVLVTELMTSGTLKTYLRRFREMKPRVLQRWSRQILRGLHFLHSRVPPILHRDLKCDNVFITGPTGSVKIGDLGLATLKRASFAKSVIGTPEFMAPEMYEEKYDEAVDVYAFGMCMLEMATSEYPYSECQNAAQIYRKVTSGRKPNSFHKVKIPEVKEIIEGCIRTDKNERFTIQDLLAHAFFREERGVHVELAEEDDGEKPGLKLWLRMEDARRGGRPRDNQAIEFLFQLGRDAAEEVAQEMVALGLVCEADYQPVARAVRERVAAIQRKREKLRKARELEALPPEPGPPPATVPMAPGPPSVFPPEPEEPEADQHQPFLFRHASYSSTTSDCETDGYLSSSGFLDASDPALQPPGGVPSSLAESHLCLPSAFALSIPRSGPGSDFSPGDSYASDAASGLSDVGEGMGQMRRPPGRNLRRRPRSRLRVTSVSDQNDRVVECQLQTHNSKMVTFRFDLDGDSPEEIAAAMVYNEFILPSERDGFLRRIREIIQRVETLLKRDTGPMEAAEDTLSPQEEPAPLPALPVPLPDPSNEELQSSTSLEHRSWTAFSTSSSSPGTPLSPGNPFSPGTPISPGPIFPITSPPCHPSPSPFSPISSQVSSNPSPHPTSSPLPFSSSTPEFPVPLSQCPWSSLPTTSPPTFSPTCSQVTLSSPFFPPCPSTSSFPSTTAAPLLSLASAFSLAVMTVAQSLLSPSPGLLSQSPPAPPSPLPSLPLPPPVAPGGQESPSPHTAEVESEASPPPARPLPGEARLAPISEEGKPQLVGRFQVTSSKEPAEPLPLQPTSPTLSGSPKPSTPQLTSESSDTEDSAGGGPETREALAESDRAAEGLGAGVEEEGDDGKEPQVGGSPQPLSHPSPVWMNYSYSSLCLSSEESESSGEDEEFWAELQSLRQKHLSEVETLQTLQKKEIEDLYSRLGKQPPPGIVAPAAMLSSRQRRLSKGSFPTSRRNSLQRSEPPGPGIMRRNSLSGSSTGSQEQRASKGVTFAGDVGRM
Sequence of Serine/threonine-protein kinase SIK3 (Homo sapiens) (Q9Y2K2 whole entry, looked up, canonical isoform): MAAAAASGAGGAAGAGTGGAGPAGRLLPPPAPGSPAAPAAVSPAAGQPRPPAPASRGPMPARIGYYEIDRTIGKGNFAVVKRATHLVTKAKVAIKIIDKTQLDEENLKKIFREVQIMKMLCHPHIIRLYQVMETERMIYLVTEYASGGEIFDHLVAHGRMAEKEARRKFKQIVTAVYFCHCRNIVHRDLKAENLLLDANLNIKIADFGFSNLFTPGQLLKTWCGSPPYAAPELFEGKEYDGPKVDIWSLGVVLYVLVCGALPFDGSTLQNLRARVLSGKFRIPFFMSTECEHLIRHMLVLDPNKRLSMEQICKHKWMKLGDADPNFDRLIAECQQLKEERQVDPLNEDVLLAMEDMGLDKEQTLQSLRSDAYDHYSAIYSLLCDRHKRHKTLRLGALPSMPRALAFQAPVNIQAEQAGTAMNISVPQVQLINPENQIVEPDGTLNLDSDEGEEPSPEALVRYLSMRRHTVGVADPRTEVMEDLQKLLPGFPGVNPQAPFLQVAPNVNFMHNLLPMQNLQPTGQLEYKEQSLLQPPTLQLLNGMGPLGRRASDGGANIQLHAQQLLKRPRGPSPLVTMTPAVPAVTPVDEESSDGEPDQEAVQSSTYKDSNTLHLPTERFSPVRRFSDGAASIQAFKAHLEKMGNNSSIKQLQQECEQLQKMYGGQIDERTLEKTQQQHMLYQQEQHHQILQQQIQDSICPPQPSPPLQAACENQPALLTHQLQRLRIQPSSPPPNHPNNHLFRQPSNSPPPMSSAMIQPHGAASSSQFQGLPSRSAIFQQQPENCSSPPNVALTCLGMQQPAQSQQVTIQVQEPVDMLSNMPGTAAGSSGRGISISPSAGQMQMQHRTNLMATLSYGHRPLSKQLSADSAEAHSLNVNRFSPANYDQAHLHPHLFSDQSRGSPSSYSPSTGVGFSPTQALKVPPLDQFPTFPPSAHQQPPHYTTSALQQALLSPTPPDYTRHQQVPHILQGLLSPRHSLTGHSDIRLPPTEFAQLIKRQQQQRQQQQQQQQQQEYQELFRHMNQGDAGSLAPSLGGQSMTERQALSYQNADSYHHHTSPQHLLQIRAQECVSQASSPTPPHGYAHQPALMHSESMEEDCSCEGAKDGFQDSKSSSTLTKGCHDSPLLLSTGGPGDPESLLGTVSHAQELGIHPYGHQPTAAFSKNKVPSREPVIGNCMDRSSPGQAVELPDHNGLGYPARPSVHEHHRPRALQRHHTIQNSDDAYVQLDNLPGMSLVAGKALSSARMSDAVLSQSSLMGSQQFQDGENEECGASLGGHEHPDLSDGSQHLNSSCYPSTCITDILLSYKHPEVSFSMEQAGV
Sequence of Casein kinase I isoform alpha (Homo sapiens) (P48729 2-337 limits assumed): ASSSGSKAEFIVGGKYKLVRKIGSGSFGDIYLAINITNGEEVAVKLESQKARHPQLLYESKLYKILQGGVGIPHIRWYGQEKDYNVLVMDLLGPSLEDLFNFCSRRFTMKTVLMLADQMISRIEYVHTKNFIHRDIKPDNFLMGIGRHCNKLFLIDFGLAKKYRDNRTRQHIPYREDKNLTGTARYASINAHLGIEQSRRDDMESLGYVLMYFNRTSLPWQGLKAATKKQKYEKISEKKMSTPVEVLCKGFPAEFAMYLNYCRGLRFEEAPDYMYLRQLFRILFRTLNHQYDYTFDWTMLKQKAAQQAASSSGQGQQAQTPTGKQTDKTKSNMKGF
Sequence of Kappa-type opioid receptor (Homo sapiens) (P41145 whole entry): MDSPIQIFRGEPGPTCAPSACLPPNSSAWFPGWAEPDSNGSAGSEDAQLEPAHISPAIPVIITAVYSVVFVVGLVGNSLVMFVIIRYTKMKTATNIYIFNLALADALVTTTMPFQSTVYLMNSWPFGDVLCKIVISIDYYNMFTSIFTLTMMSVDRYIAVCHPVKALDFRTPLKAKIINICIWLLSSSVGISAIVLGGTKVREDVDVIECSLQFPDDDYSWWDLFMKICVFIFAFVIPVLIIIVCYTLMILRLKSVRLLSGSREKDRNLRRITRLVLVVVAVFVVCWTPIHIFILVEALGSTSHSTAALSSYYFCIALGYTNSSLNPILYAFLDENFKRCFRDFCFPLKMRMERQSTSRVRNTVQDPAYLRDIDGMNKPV
Sequence of Dual specificity mitogen-activated protein kinase kinase 2 (Homo sapiens) (P36507 whole entry, canonical isoform): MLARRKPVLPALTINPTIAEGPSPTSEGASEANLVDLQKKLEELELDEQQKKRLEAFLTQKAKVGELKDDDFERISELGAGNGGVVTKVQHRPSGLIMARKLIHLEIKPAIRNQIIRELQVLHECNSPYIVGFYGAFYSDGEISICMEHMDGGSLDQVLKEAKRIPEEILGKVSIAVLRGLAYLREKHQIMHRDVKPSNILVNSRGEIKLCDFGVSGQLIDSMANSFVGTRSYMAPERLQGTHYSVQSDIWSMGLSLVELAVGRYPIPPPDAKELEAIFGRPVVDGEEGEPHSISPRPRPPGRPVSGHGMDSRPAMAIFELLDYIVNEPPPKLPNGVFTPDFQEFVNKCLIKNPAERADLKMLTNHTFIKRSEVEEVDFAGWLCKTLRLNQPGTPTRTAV

CN(C)c1ncnc(-c2ccc3nc(Nc4cc(CN5CCN(C(=O)CC(F)(F)F)CC5)ccn4)[nH]c3c2)c1Cl [BAY-440]
inhibition [1]: -9.93%
residual activity [2, 46]: 90%
residual activity [3, 46]: 61%
residual activity [4, 46]: 86%
residual activity [5, 46]: 95%
residual activity [6, 46]: 100%
inhibition [7]: 15.7%
residual activity [8, 46]: 100%
residual activity [9, 46]: 83%
residual activity [10, 46]: 69%
residual activity [11, 46]: 57%
residual activity [12, 46]: 100%
residual activity [13, 46]: 92%
residual activity [14, 46]: 100%
residual activity [15, 46]: 85%
residual activity [16, 46]: 100%
residual activity [17, 46]: 98%
residual activity [18, 46]: 75%
residual activity [19, 46]: 38%
residual activity [20, 46]: 100%
residual activity [21, 46]: 83%
residual activity [22, 46]: 83%
residual activity [23, 46]: 100%
residual activity [24, 46]: 95%
residual activity [25, 46]: 74%
residual activity [26, 46]: 35%
residual activity [27, 46]: 57%
inhibition [28]: 35.6%
residual activity [29, 46]: 100%
residual activity [30, 46]: 100%
residual activity [31, 46]: 95%
inhibition [32]: 33.7%
residual activity [33, 46]: 53%
residual activity [34, 46]: 44%
inhibition [35]: 32.1%
residual activity [36, 46]: 53%
residual activity [37, 46]: 100%
residual activity [38, 46]: 75%
residual activity [39, 46]: 53%
residual activity [40, 46]: 97%
residual activity [41, 46]: 89%
residual activity [42, 46]: 75%
residual activity [43, 46]: 100%
residual activity [44, 46]: 75%
Ki ([45]; read-out: Ki): 2.19 µM

C[C@H](c1ccnc(Nc2nc3ccc(-c4cc(N(C)C)ncn4)cc3[nH]2)c1)N1CCN(C(=O)CC(F)(F)F)CC1 [BAY-985]
inhibition [1]: 10.2%
residual activity [2, 47]: 65%
residual activity [3, 47]: 90%
residual activity [4, 47]: 100%
residual activity [5, 47]: 100%
residual activity [6, 47]: 100%
inhibition [7]: 24.2%
residual activity [8, 47]: 100%
residual activity [9, 47]: 100%
residual activity [10, 47]: 100%
residual activity [11, 47]: 94%
residual activity [12, 47]: 100%
residual activity [13, 47]: 97%
residual activity [14, 47]: 100%
residual activity [15, 47]: 100%
residual activity [16, 47]: 100%
residual activity [17, 47]: 80%
residual activity [18, 47]: 100%
residual activity [19, 47]: 41%
residual activity [20, 47]: 84%
residual activity [21, 47]: 100%
residual activity [22, 47]: 89%
residual activity [23, 47]: 100%
residual activity [24, 47]: 96%
residual activity [25, 47]: 100%
residual activity [26, 47]: 100%
residual activity [27, 47]: 100%
inhibition [28]: 31.9%
residual activity [29, 47]: 99%
residual activity [30, 47]: 100%
residual activity [31, 47]: 100%
inhibition [32]: 4.24%
residual activity [33, 47]: 80%
residual activity [34, 47]: 87%
inhibition [35]: 15.1%
residual activity [36, 47]: 80%
residual activity [37, 47]: 69%
residual activity [38, 47]: 83%
residual activity [39, 47]: 83%
residual activity [40, 47]: 98%
residual activity [41, 47]: 100%
residual activity [42, 47]: 97%
residual activity [43, 47]: 82%
residual activity [44, 47]: 96%
Ki ([45]; read-out: Ki): 1.16 µM
Ki ([45]; read-out: pKi (converted)): 1.12 µM
